Ends that are not written are not given here.
Legend:
[1] = system: potassium channel; assay: voltage-clamp study of potassium channel blockade in dorsal root ganglion cells; format: cell-based; details: concentrations of up to 100 micromolar, chick embryo dorsal root ganglion cells
Excerpt: (§1) The mechanism of action of all synthetic peptides was verified by three independent essays: "in vivo" challenge by injection of albino mice (strain CD1) with different amounts of synthetic peptides; liberation of radioactive (tritiated) gamma-amino-butyric acid from mouse brain synaptosomes; and confirmation of the results with electrophysiological experiments, through voltage-clamp technique, in chick embryo dorsal root ganglion cells maintained in "in vitro" culture.

[2] = system: BALB/c mice; details: BALB/c mice immunized for two months, immunodiffusion against NTX 1-39 coupled to MSA, FIG. 3
Excerpt: A group of ten mice were immunized with each peptide and a second group of mice were immunized with each peptide coupled to mouse serum albumin as a carrier molecule.

[3] = system: mouse brain synaptosomes; assay: release of tritiated GABA from mouse brain synaptosomes; format: cell-based; details: for effect on GABA (neurotransmitter) release: mouse brain synaptosomes preloaded with 3H-GABA, FIG. 2
Excerpt: as §1
In the experiments involving release of neurotransmitters, mouse brain synaptosomes were preloaded with radioactive gamma-amino-butyric acid (2, 3, 3H-GABA) and were placed in Millipore filters ([…]) in perfusion chambers, each one containing 0.2 to 0.3 mg. of synaptosomal protein. The fractions from the perfusate (0.5 ml. each) were collected by means of a peristaltic pump at one minute intervals. After 6 minutes, a solution containing synthetic polypeptides was added to the experimental chambers and the radioactivity release was counted in an apparatus for measuring radioisotopes. […] The liberation of GABA per minute is expressed as a percentage of the total radioactivity present in the synaptosomes at the beginning of the experiment.

[4] = system: albino mice (strain CD1); assay: "in vivo" challenge / lethality tests of synthetic peptides by injection of mice; details: for lethality test outcome: mouse, in vivo
[5] = system: mice challenged with Noxiustoxin; details: challenge with effective lethal dose of Noxiustoxin (150 g per mouse)
[6] = dose 200 g (so in the source), intraventricularly

Methionine-Asparagine-Glycine-Lysine-Cysteine-Lysine-Cysteine-Tyrosine-Asparagine-Asparagine [NTX 30-39]
change in the potassium currents [1]: no change | immunogenicity [2]: immunogenic

Noxiustoxin (TIINVKCTSPKQCSKPCKELYGSSAGAKCMNGKCKCYNN; UniProt P08815 1-39, looked up) [Native NTX]
effect on GABA (neurotransmitter) release [3]: increases neurotransmitter release | intoxication symptoms and outcome ([4]; dose of 40 g per 20 grams of mouse body weight): generally produces death | lethality test outcome [4]: Toxic | lethality test outcome ([4]; ip): Toxic | lethality test outcome ([4]; sc): Toxic

Threonine-Isoleucine-Isoleucine-Asparagine-Valine-Lysine-Cysteine-Threonine-Serine-Proline-Lysine-Glutamine-Cysteine-Serine-Lysine-Proline-Cysteine-Lysine-Glutamic Acid-Leucine [NTX 1-20]
effect on GABA (neurotransmitter) release [3]: increases neurotransmitter release

Threonine-Isoleucine-Isoleucine-Asparagine-Valine-Lysine-Cysteine-Threonine-Serine-Proline-Lysine-Glutamine-Cysteine-Serine-Lysine-Proline-Cysteine-Lysine-Glutamic Acid-Leucine-Tyrosine-Glycine-Serine-Serine-Alanine-Glycine-Alanine-Lysine-Cysteine-Methionine-Asparagine-Glycine-Lysine-Cysteine-Lysine-Cysteine-Tyrosine-Asparagine-Asparagine [NTX 1-39]
blockade of potassium permeability / potassium channels ([3]; excitable membranes such as brain synaptosomes): blocks potassium permeability | immunogenicity [2]: immunogenic | survival of immunized population [5]: more than 75%

TIINVKCTS [NTX 1-9, Threonine-Isoleucine-Isoleucine-Asparagine-Valine-Lysine-Cysteine-Threonine-Serine]
time to death ([4]; dose 100 g (so in the source), intraventricularly): ≤ 20 h | time to convulsions [4, 6]: ≤ 12 min | time to death [4, 6]: < 0.333 h

Tyrosine-Glycine-Serine-Serine-Alanine-Glycine-Alanine-Lysine-Cysteine-Methionine-Asparagine-Glycine-Lysine-Cysteine-Lysine-Cysteine-Tyrosine-Asparagine-Asparagine [NTX 21-39]
immunogenicity [2]: immunogenic

— patent US4929718A, “Synthetic noxiustoxin related peptides” (Universidad Nacional Autonoma De Mexico, priority 1987, dated 1990)
